The test system of one test is primary human lung fibroblasts and primary rodent HSCs. Description: High content imaging assay (α-SMA staining, cell morphology) of fibroblast to myofibroblast transdifferentiation, confirmed by Western blot and RT-PCR. To be noted: Homo sapiens, Fibroblast; imaging and western based activity. The essentials: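 Primary human lung fibroblasts and primary rodent HSCs were serum-starved and then TGF-β-treated to drive transdifferentiation in 384-well format, with SB-431542 as positive control. Readouts were α-SMA immunofluorescence and cell morphology by high-content imaging, confirmed by Western blot and RT-PCR in 4-day, 4-point dose-response assays; EC50 values are graded.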
A general note: Immunoblotting shows a protein as a band on a membrane.
As usually defined, the EC50 is the concentration needed to bring the measured effect to its halfway point. A high value points to weaker potency. Regarding `CC[C@@H](C)n1ncn(-c2ccc(N3CCN(c4ccc(OC[C@@H]5CO[C@@](Cn6nccn6)(c6ccccc6)O5)cc4)CC3)cc2)c1=O` [Compound 179, 4-(4-(4-(4-(((2S,4R)-2-((2H-1,2,3-triazol-2-yl)methyl)-2-phenyl-1,3-dioxolan-4-yl)methoxy)phenyl)piperazin-1-yl)phenyl)-(R)-1-sec-butyl-1H-1,2,4-triazol-5(4H)-one], the concentration giving a half-maximal response (EC50) is below 500 nM.

The molecule `CCC(C)n1ncn(-c2ccc(N3CCN(c4cccc(OC[C@@H]5CO[C@@](Cn6nccn6)(c6ccc(Cl)cc6Cl)O5)c4)CC3)cc2)c1=O` (stereo partly shown) [Compound 78] gave an EC50 of 500 to 5000 nM. Still for that read-out and setting: with `CCCC(C)n1ncn(-c2ccc(N3CCN(c4ccc(OC[C@@H]5CO[C@@](Cn6nccn6)(c6ccc(Cl)cc6Cl)O5)cc4)CC3)cc2)c1=O` (stereo partly shown) [Compound 12] the figure was 500 to 5000 nM; with `CCC(C)n1ncn(-c2ccc(N3CCN(c4ccc(OC[C@H]5OC[C@](Cn6cncn6)(c6ccc(F)cc6F)O5)cc4)CC3)cc2)c1=O` (mixture of isomers) [compound 200], below 500 nM.

In turn, `CCC(C)n1ncn(-c2ccc(N3CCN(c4ccc(OC[C@@H]5CO[C@@](Cn6nccn6)(c6cc(Cl)ccc6Br)O5)cc4)CC3)cc2)c1=O` (stereo partly shown) [Compound 35] registered a 50% effective concentration (EC50) of 500 to 5000 nM. Still for that read-out and setting: the figure for `CCC(C)n1ncn(-c2ccc(N3CCN(c4ccc(OC[C@@H]5CO[C@@](Cn6nccn6)(c6ccccc6)O5)c(F)c4F)CC3)cc2)c1=O` (stereo partly shown) [Compound 63] is 5000 to 30000 nM.

The test is the same for the next values; noted with them: imaging and western based activity.
In turn, `CCC(CC)n1ncn(-c2ccc(N3CCN(c4ccc(OC[C@@H]5CO[C@@](Cn6nccn6)(c6ccccc6)O5)cc4)CC3)cc2)c1=O` [Compound 21] returned a concentration giving a half-maximal response (EC50) below 500 nM.

For the origin of these results see patent US10336735B2, “Small molecule inhibitors of fibrosis” (THE CALIFORNIA INSTITUTE FOR BIOMEDICAL RESEARCH, priority 2014, dated 2019).
